{
  "source": "ChEMBL document CHEMBL5236632",
  "about": "“Membrane-Active Nonivamide Derivatives as Effective Broad-Spectrum Antimicrobials: Rational Design, Synthesis, and Biological Evaluation” (J Med Chem, 2022)",
  "key": {"[1]": {"test_system": "Staphylococcus aureus", "test": "Drug resistance development in Staphylococcus aureus ATCC 29213 assessed as fold change in MIC measured after 20 passages", "format": "functional"}, "[2]": {"test_system": "Escherichia coli", "test": "Antibacterial activity against Escherichia coli ATCC 25922 assessed as reduction in bacterial load at 8 time of MIC measured with in 30 mins by time kill assay", "format": "functional", "details": "0.5 h"}, "[3]": {"test_system": "Escherichia coli", "test": "Drug resistance development in Escherichia coli ATCC 25922 assessed as fold change in MIC measured after 20 passages", "format": "functional"}, "[4]": {"test": "Selectivity ratio, HC50 for hemolytic activity in rabbit RBC to MIC for antibacterial activity against Staphylococcus aureus ATCC 29213", "format": "toxicity", "details": "rabbit red blood cells"}, "[5]": {"test": "Selectivity ratio, HC50 for hemolytic activity in rabbit RBC to MIC for antibacterial activity against methicillin-resistant Staphylococcus aureus N315", "format": "toxicity", "details": "rabbit red blood cells"}, "[6]": {"test_system": "Acinetobacter baumannii", "test": "Antibacterial activity against Acinetobacter baumannii R2889 assessed as inhibition of visible growth measured after 18 to 24 hrs by broth dilution method", "format": "functional", "details": "time 18-24 hrs"}, "[7]": {"test_system": "Klebsiella pneumoniae", "test": "Antibacterial activity against Klebsiella pneumoniae ATCC 14581 assessed as inhibition of visible growth measured after 18 to 24 hrs by broth dilution method", "format": "functional", "details": "time 18-24 hrs"}, "[8]": {"test": "Selectivity ratio, HC50 for hemolytic activity in rabbit RBC to MIC for antibacterial activity against Acinetobacter baumannii ATCC 17978", "format": "toxicity", "details": "rabbit red blood cells"}, "[9]": {"test": "Selectivity ratio, HC50 for hemolytic activity in rabbit RBC to MIC for antibacterial activity against Klebsiella pneumoniae ATCC 10031", "format": "toxicity", "details": "rabbit red blood cells"}, "[10]": {"test": "Haemolytic activity in rabbit red blood cells incubated for 60 mins by k multi-mode reader relative to control", "format": "toxicity, cell-based, Oryctolagus cuniculus, Erythrocyte", "details": "for HC5: erythrocyte, 1 h"}, "[11]": {"test": "Selectivity ratio, HC50 for hemolytic activity in rabbit RBC to MIC for antibacterial activity against methicillin-resistant Staphylococcus aureus NCTC 10442", "format": "toxicity", "details": "rabbit red blood cells"}, "[12]": {"test_system": "Klebsiella pneumoniae", "test": "Antibacterial activity against Klebsiella pneumoniae ATCC 10031 assessed as inhibition of visible growth measured after 18 to 24 hrs by broth dilution method", "format": "functional", "details": "time 18-24 hrs"}, "[13]": {"test": "Selectivity ratio, HC50 for hemolytic activity in rabbit RBC to MIC for antibacterial activity against Pseudomonas aeruginosa ATCC 9027", "format": "toxicity"}, "[14]": {"test_system": "Acinetobacter baumannii", "test": "Antibacterial activity against Acinetobacter baumannii ATCC 17978 assessed as inhibition of visible growth measured after 18 to 24 hrs by broth dilution method", "format": "functional", "details": "time 18-24 hrs"}, "[15]": {"test": "Selectivity ratio, HC50 for hemolytic activity in rabbit RBC to MIC for antibacterial activity against Acinetobacter baumannii R2889", "format": "toxicity", "details": "rabbit red blood cells"}, "[16]": {"test": "Selectivity ratio, HC50 for hemolytic activity in rabbit RBC to MIC for antibacterial activity against Klebsiella pneumoniae ATCC 14581", "format": "toxicity", "details": "rabbit red blood cells"}, "[17]": {"test_system": "Cell membrane", "test": "Induction of membrane depolarization in Escherichia coli ATCC 25922 assessed as increase in fluorescence intensity at 4 to 8 times MIC measured for 60 mins by DiSC3(5) dye based fluorescence method", "format": "subcellular"}, "[18]": {"test_system": "Staphylococcus aureus", "test": "Antibacterial activity against Staphylococcus aureus ATCC 29213 assessed as inhibition of visible growth measured after 18 to 24 hrs by broth dilution method", "format": "functional", "details": "time 18-24 hrs"}, "[19]": {"test": "Cytotoxicity against mouse NCTC clone 929 cells assessed as cell viability after 24 hrs incubation byCCK-8 assay", "format": "toxicity, cell-based"}, "[20]": {"test_system": "Cell membrane", "test": "Induction of membrane depolarization in Staphylococcus aureus ATCC 29213 assessed as increase in fluorescence intensity at 4 to 8 times MIC measured for 60 mins by DiSC3(5) dye based fluorescence method", "format": "subcellular"}, "[21]": {"test_system": "Pseudomonas aeruginosa", "test": "Antibacterial activity against Pseudomonas aeruginosa ATCC 9027 assessed as inhibition of visible growth measured after 18 to 24 hrs by broth dilution method", "format": "functional", "details": "time 18-24 hrs"}, "[22]": {"test_system": "Staphylococcus aureus", "test": "Antibacterial activity against methicillin-resistant Staphylococcus aureus NCTC 10442 assessed as inhibition of visible growth measured after 18 to 24 hrs by broth dilution method", "format": "functional", "details": "time 18-24 hrs"}, "[23]": {"test": "Cytotoxicity against HEK293 cells assessed as cell viability after 24 hrs incubation byCCK-8 assay", "format": "toxicity, cell-based", "details": "human"}, "[24]": {"test_system": "Staphylococcus aureus", "test": "Antibacterial activity against methicillin-resistant Staphylococcus aureus N315 assessed as inhibition of visible growth measured after 18 to 24 hrs by broth dilution method", "format": "functional", "details": "time 18-24 hrs"}, "[25]": {"test_system": "Escherichia coli", "test": "Antibacterial activity against Escherichia coli ATCC 25922 assessed as inhibition of visible growth measured after 18 to 24 hrs by broth dilution method", "format": "functional", "details": "time 18-24 hrs"}, "[26]": {"test_system": "Cell membrane", "test": "Induction of outer membrane permeability in Escherichia coli ATCC 25922 assessed as increase fluoresence intensity at 4 to 8 times of MIC measured for 60 mins by NPN uptake assay", "format": "subcellular"}, "[27]": {"test_system": "Staphylococcus aureus", "test": "Antibacterial activity against Staphylococcus aureus ATCC 29213 assessed as reduction in bacterial load at 8 time of MIC measured after 8 hrs by time kill assay", "format": "functional"}},
  "note": "Activity calls are given as the source filed them. The rule behind the calls is not given here.",
  "data": [
    {"smiles": "CCn1cc(C(=O)O)c(=O)c2cc(F)c(N3CCNCC3)cc21", "note": "[NORFLOXACIN]", "values": [
      {"measurement": "fold change (FC)", "setting": "[1]", "value": 128}
    ]},
    {"smiles": "CC1(C)S[C@@H]2[C@H](NC(=O)[C@H](N)c3ccc(O)cc3)C(=O)N2[C@H]1C(=O)O", "note": "[AMOXICILLIN]", "values": [
      {"measurement": "Activity", "setting": "[2]", "value": 0.29, "unit": "log10CFU/ml"},
      {"measurement": "fold change (FC)", "setting": "[3]", "value": 16}
    ]},
    {"smiles": "CC[C@H](C)[C@H](NC(=O)CN)C(=O)NCC(=O)N[C@@H](C)C(=O)N[C@H](C(=O)N[C@@H](CC(C)C)C(=O)N[C@@H](CCCCN)C(=O)N[C@H](C(=O)N[C@@H](CC(C)C)C(=O)N[C@H](C(=O)N[C@H](C(=O)NCC(=O)N[C@@H](CC(C)C)C(=O)N1CCC[C@H]1C(=O)N[C@@H](C)C(=O)N[C@@H](CC(C)C)C(=O)N[C@H](C(=O)N[C@@H](CO)C(=O)N[C@@H](Cc1c[nH]c2ccccc12)C(=O)N[C@H](C(=O)N[C@@H](CCCCN)C(=O)N[C@@H](CCCNC(=N)N)C(=O)N[C@@H](CCCCN)C(=O)N[C@@H](CCCNC(=N)N)C(=O)N[C@@H](CCC(N)=O)C(=O)N[C@@H](CCC(N)=O)C(N)=O)[C@@H](C)CC)[C@@H](C)CC)[C@@H](C)O)[C@@H](C)O)C(C)C)C(C)C", "note": "[MELITTIN]", "values": [
      {"measurement": "selectivity ratio", "setting": "[4]", "value": 6.1},
      {"measurement": "selectivity ratio", "setting": "[5]", "value": 6.1},
      {"measurement": "MIC", "setting": "[6]", "value": 3.12, "unit": "µg/mL"},
      {"measurement": "MIC", "setting": "[7]", "value": 6.25, "unit": "µg/mL"},
      {"measurement": "selectivity ratio", "setting": "[8]", "value": 3.1},
      {"measurement": "selectivity ratio", "setting": "[9]", "value": 3.1},
      {"measurement": "HC5", "setting": "[10]", "value": 5.4, "unit": "µg/mL"},
      {"measurement": "selectivity ratio", "setting": "[11]", "value": 6.1},
      {"measurement": "MIC", "setting": "[12]", "value": 6.25, "unit": "µg/mL"},
      {"measurement": "selectivity ratio", "setting": "[13]; rabbit red blood cells", "value": 3.1},
      {"measurement": "MIC", "setting": "[14]", "value": 3.12, "unit": "µg/mL"},
      {"measurement": "selectivity ratio", "setting": "[15]", "value": 3.1},
      {"measurement": "selectivity ratio", "setting": "[16]", "value": 3.1}
    ]},
    {"smiles": "CCCCCCCCC(=O)NCc1ccc(O)c(OC)c1", "note": "[NONIVAMIDE]", "values": [
      {"measurement": "Activity", "setting": "[17]", "value": "inactive"},
      {"measurement": "MIC", "setting": "[18]", "value": "> 50", "unit": "µg/mL"},
      {"measurement": "MIC", "setting": "[6]", "value": "> 50", "unit": "µg/mL"},
      {"measurement": "MIC", "setting": "[7]", "value": "> 50", "unit": "µg/mL"},
      {"measurement": "CC50 at 24 h", "setting": "[19]", "value": 59, "unit": "µg/mL"},
      {"measurement": "Activity", "setting": "[20]", "value": "inactive"},
      {"measurement": "MIC", "setting": "[21]", "value": "> 50", "unit": "µg/mL"},
      {"measurement": "MIC", "setting": "[22]", "value": "> 50", "unit": "µg/mL"},
      {"measurement": "CC50 at 24 h", "setting": "[23]", "value": 62, "unit": "µg/mL"},
      {"measurement": "MIC", "setting": "[24]", "value": "> 50", "unit": "µg/mL"},
      {"measurement": "HC5", "setting": "[10]", "value": "> 200", "unit": "µg/mL"},
      {"measurement": "HC50 at 1 h", "setting": "[10]; rabbit red blood cells", "value": "> 200", "unit": "µg/mL"},
      {"measurement": "MIC", "setting": "[12]", "value": "> 50", "unit": "µg/mL"},
      {"measurement": "MIC", "setting": "[25]", "value": "> 50", "unit": "µg/mL"},
      {"measurement": "MIC", "setting": "[13]; erythrocytes", "value": "> 50", "unit": "µg/mL"},
      {"measurement": "MIC", "setting": "[14]", "value": "> 50", "unit": "µg/mL"},
      {"measurement": "Activity", "setting": "[26]", "value": "inactive"}
    ]},
    {"smiles": "CN[C@H](CC(C)C)C(=O)N[C@H]1C(=O)N[C@@H](CC(N)=O)C(=O)N[C@H]2C(=O)N[C@H]3C(=O)N[C@H](C(=O)N[C@H](C(=O)O)c4cc(O)cc(O)c4-c4cc3ccc4O)[C@H](O)c3ccc(c(Cl)c3)Oc3cc2cc(c3O[C@@H]2O[C@H](CO)[C@@H](O)[C@H](O)[C@H]2O[C@H]2C[C@](C)(N)[C@H](O)[C@H](C)O2)Oc2ccc(cc2Cl)[C@H]1O", "note": "[VANCOMYCIN]", "values": [
      {"measurement": "MIC", "setting": "[18]", "value": 1.56, "unit": "µg/mL"},
      {"measurement": "Activity", "setting": "[27]", "value": 2.44, "unit": "log10CFU/ml"},
      {"measurement": "MIC", "setting": "[22]", "value": 0.78, "unit": "µg/mL"},
      {"measurement": "MIC", "setting": "[24]", "value": 0.78, "unit": "µg/mL"},
      {"measurement": "MIC", "setting": "[25]", "value": "> 50", "unit": "µg/mL"}
    ]}
  ]
}
